Reference: patent publication US11207312B2, “Metallo-beta-lactamase inhibitors and methods of use thereof” (priority 2017, dated 2021)

Legend:
[1] = test system: P. aeruginosa MB9799 (efflux-, IMP-1 plasmid); format: cell-based, Pseudomonas aeruginosa; settings: efflux − (MB9799) strain; imipenem at 2 μg/mL; in the presence of a class A, C, D serine β-lactamase inhibitor closely related to relebactam
Description: (§1) The strain background is Pseudomonas aeruginosa PAO1. A wild-type (M135919) and an isogenic strain in which multiple efflux pumps have been disrupted genetically were used. The MBL IMP-1, obtained from a clinical isolate was introduced into the strain pair by the following process:
(§2) The plasmid DNA was transformed into parental MB5919 (oprD+, efflux+, inducible AmpC) and MB5890 (oprD+, efflux−, inducible AmpC) isogenic strains by electroporation.
(§3) The strain set was then used as a pair to determine the effect of metallo-β-lactamase inhibitors of Formula I on the MIC of imipenem and/or ceftazidime. A fixed concentration of antibiotic is included in standard microbroth MIC tests, usually at the CLSI breakpoint concentration, A fixed amount of a class A/C beta-lactamase inhibitor is also included to inhibit the resident Pseudomonas AmpC enzyme. A serial titration of the metallo-β-lactamase inhibitor was included and the concentration of metallo-β-lactamase inhibitor which restores susceptibility of the strain to the included antibiotic was recorded. That concentration of metallo-β-lactamase inhibitor was then compared between the two strains to determine the fold difference between the efflux+(MB9798) and efflux−(MI39799) strains, which indicates the extent to which the MBLi is subject to efflux.

[2] = test system: Serratia marcescens expressing IMP-1 (CL5741); format: cell-based; settings: with imipenem 1 μg/ml; 95% inhibition of bacterial growth
Protocol: (§4) The bacterial strains tested included the clinical strains Escherichia coil expressing NDM-1 (CLB30005, CLB30016), Serratia marcescens expressing IMP-1 (CL5741), and Klebsiella pneumoniae expressing VIM-1 (H-LMA599644). Inhibitor activity was measured in the presence and absence of imipenem in a 384-well microplate.
(§5) The clinical strains CLB30016, CL5741 and IHMA599644 were grown on trypticase soy agar containing 5% sheep's blood. The bacteria on agar plates were incubated at 35° C. with humidity overnight. The following day, individual colonies from each clinical strain were picked and resuspended in 5 ml saline to attain an OD600 of […], for CLB30016, C15741 and IHMA599644, respectively. These were further diluted 1:100 into 1.1× CAMHB and used to inoculate the test wells as described below.
(§6) Imipenem in 10 mM 3-(N-morpholino)propanesulfonic acid (MOPS, pH 7) was stored in single use aliquots at −80° C. […] On the day of the assay, 4 μl of antibiotic was added to 45 μl of bacteria followed by 1 μl of test compound and mixed by pipetting and with an orbital shaker. The concentration of antibiotic used in the assay was 1 μg/ml. Microplates were covered and incubated at 35° C. for 22 hours to 24 hours. At the end of the incubation, absorbance was determined using a spectrophotometer. The synergistic concentration of MBLI was determined by identifying the lowest concentration of test compound in the presence of a given concentration of antibiotic that was required to inhibit 95% of the growth of the bacteria. The results for Examples 1-209 are reported in Table 1, expressed as the concentration of compound that potentiated the action of antibiotic (imipenem) affecting 95% inhibition of bacterial growth (MITC95).

[3] = test system: Escherichia coli expressing NDM-1 (CLB30016); format: cell-based; settings: with imipenem 1 μg/ml; 95% inhibition of bacterial growth
Protocol: as §4, §5, §6

[4] = test system: Klebsiella pneumoniae expressing VIM-1 (IHMA599644); format: cell-based; settings: with imipenem 1 μg/ml; 95% inhibition of bacterial growth
Protocol: as §4, §5, §6

[5] = test system: P. aeruginosa MB9798 (efflux+, IMP-1 plasmid); settings: for MB9798 MITC95 P. aeruginosa uM Efflux WT: efflux + (MB9798) strain, imipenem at 2 μg/mL, in the presence of a class A, C, D serine β-lactamase inhibitor closely related to relebactam; for Efflux ratio: fold difference between efflux+ (MB9798) and efflux− (MB9799) strains
Description: as §1, §2, §3

[6] = biological target: IMP-1 (Serratia marcescens, UniProt P52699); test: biochemical; settings: CCF2-FA fluorescence assay, 2 hours at 25° C.; read-out: IMP1 IC50
Protocol: (§7) The Class B enzyme activities were measured in the presence of the test inhibitor in a fluorescence assay against a commercially available substrate consisting of a cephalosporin core linking 7-hydroxycoumarin to fluorescein (CCF2-FA). The enzyme (NDM-1, IMP-1 or VIM-1) and the substrate were diluted in 100 mM KH2PO4 buffer (pH 7) containing 0.005% Tween-20 and 10 μM ZnSO4. In the assay, the final concentration of enzyme was 1 pM, 2 pM and 30 pM for NDM-1, IMP-1 and VIM-1, respectively, and the final concentration of CCF2-FA was 1.25 μM. The test inhibitor was dissolved in dimethylsulfoxide and diluted 1:50 in the assay, resulting in a final concentration range of 20 μM to 0.00063 μM. In a 384-well microplate, the test inhibitor was incubated with the metallo-β-lactamase enzyme and the substrate for 2 hours at 25° C. Fluorescence at 460 nm following excitation at 405 nm was measured. The IC50 value was determined from semi-logarithmic plots of enzyme inhibition versus inhibitor concentration, with a curve generated using a 4-parameter fit.

[7] = biological target: VIM-1 (Pseudomonas aeruginosa (strain ATCC 15692 / DSM 22644 / CIP 104116 / JCM 14847 / LMG 12228 / 1C / PRS 101 / PAO1), UniProt A0A0F7KYQ8); test: biochemical; settings: CCF2-FA fluorescence assay, 2 hours at 25° C.; read-out: VIM1 IC50
Protocol: as §7

[8] = biological target: VIM-2 (Escherichia coli, UniProt Q5U7L7); test: biochemical; settings: CCF2-FA fluorescence assay; read-out: VIM2 IC50
[9] = biological target: NDM-1 (Klebsiella pneumoniae, UniProt C7C422); test: biochemical; format: biochemical; settings: CCF2-FA fluorescence assay, 2 hours at 25° C.
Protocol: as §7

Sequence of IMP-1 (P52699 whole entry, looked up, species assumed): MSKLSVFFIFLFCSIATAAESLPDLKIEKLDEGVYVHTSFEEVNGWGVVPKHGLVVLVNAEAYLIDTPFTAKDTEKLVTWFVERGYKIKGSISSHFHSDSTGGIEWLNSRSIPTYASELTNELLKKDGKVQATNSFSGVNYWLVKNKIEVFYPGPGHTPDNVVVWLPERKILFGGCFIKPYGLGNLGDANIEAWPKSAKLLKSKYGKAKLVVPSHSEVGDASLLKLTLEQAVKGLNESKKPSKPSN
Sequence of NDM-1 (C7C422 whole entry, looked up, species assumed): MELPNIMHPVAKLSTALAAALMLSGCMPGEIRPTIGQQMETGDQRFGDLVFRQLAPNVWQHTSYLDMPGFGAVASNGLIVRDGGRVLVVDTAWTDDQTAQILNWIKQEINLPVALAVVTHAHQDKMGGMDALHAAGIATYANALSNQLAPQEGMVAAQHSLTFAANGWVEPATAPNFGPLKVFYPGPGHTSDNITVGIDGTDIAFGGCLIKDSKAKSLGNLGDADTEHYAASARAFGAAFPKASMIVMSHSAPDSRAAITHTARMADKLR

| SMILES | MB9799 MITC95 P. aeruginosa uM Efflux Mutant [1] [µM] | CL5741 S. marcescens MITC95 IMP [2] [µM] | CLB30016 E. coli MITC95 NDM [3] [µM] | IHMA599644 K. pneumoniae MITC95 VIM [4] [µM] | MB9798 MITC95 P. aeruginosa uM Efflux WT [5] [µM] | Efflux ratio [5] | IC50 [6] [nM] | IC50 [7] [nM] | IC50 [8] [nM] | IC50 [9] [nM] |
| --- | --- | --- | --- | --- | --- | --- | --- | --- | --- | --- |
| NS(=O)(=O)c1c(S(=O)(=O)C2CNC2)ccc(N2CCN(CCCO)CC2)c1-c1nnn[nH]1 [Example 53, 6-(azetidin-3-ylsulfonyl)-3-[4-(3-hydroxypropyl)piperazin-1-yl]-2-(1H-tetrazol-5-yl)benzenesulfonamide] | 1.56 | 0.39 | 0.39 | 3.13 | 6.25 | 4.00 | 7.81 | 25.1 | 35.5 | 8.79 |
| NS(=O)(=O)c1c(S(=O)(=O)C2CNC2)ccc(N2CCN(CCO)CC2)c1-c1nnn[nH]1 [Example 54, 6-(azetidin-3-ylsulfonyl)-3-[4-(2-hydroxyethyl)piperazin-1-yl]-2-(1H-tetrazol-5-yl)benzenesulfonamide] | 1.56 | 0.39 | 0.39 | 6.25 | 6.25 | 4.00 | 21.9 | 66.1 | 69.5 | 16.7 |
| NS(=O)(=O)c1c(S(=O)(=O)N[C@@H]2CCNC2)ccc(N2CCCC(=NO)C2=O)c1-c1nn[nH]n1 [Example 152, (R)-4-(3-(hydroxyimino)-2-oxopiperidin-1-yl)-N1-(pyrrolidin-3-yl)-3-(2H-tetrazol-5-yl)benzene-1,2-disulfonamide] | 1.56 | 1.56 | 0.39 | 3.13 | 3.13 | 2.00 | 6.8 | 0.16 | 0.74 | 0.08 |
| NC[C@@H](O)CNS(=O)(=O)c1ccc(N2CCN(CCO)CC2)c(-c2nnn[nH]2)c1S(N)(=O)=O [Example 47, (R)-N1-(3-amino-2-hydroxypropyl)-4-(4-(2-hydroxyethyl)piper-azin-1-yl)-3-(1H-tetrazol-5-yl)benzene-1,2-disulfonamide] | 0.78 | 0.10 | 0.10 | 0.78 | 1.56 | 2.00 | 4.57 | 5.02 | 7.34 | 3.94 |
| NS(=O)(=O)c1c(S(=O)(=O)N[C@@H]2CCNC2)ccc(NCC2CCNCC2)c1-c1nn[nH]n1 [Example 183, (R)-4-((piperidin-4-ylmethyl)amino)-N1-(pyrrolidin-3-yl)-3-(2H-tetrazol-5-yl)benzene-1,2-di sulfonamide] | 1.17 | 1.56 | 1.17 | 2.34 | 3.13 | 2.67 | 12.4 | 5.89 | 69.7 | 6.26 |
| NS(=O)(=O)c1c(S(=O)(=O)N[C@@H]2CCNC2)ccc(N2CC[C@H](CO)C2)c1-c1nnn[nH]1 [Example 96, 4-[(3S)-3-(hydroxymethyl)pyrrolidin-1-yl]-N1-[(3R)-pyrrolidin-3-yl]-3-(1H-tetrazol-5-yl)benzene-1,2-disulfonamide] | 1.56 | 1.56 | 3.13 | 6.25 | 3.13 | 2.00 | 0.98 | 0.53 | 1.02 | 1.21 |
| NS(=O)(=O)c1c(S(=O)(=O)N[C@@H]2CCNC2)ccc(N2CCCC(CO)C2)c1-c1nnn[nH]1 (stereo partly drawn) [Example 107, 4-[3-(hydroxymethyl)piperidin-1-yl]-N1-[(3R)-pyrrolidin-3-yl]-3-(1H-tetrazol-5-yl)benzene-1,2-disulfonamide] | 1.56 | 3.13 | 3.13 | 6.25 | 3.13 | 2.00 | 1.1 | 0.19 | 0.42 | 0.25 |
| NS(=O)(=O)c1c(S(=O)(=O)N[C@@H]2CCNC2)ccc(N2CCN(CCO)CC2)c1-c1nnn[nH]1 [Example 102, 4-[4-(2-hydroxyethyl)piperazin-1-yl]-N1-[(3R)-pyrrolidin-3-yl]-3-(1H-tetrazol-5-yl)benzene-1,2-disulfonamide] | 1.56 | 0.20 | 0.20 | 3.13 | 3.13 | 2.00 | 2.07 | 3.06 | 7.94 | 1.35 |
| CN1CCOC2(C1)CN(c1ccc(S(=O)(=O)N[C@@H]3CCNC3)c(S(N)(=O)=O)c1-c1nnn[nH]1)C2 [Example 115, 4-(8-methyl-5-oxa-2,8-diazaspiro[3.5]non-2-yl)-N1-[(3R)-pyrrolidin-3-yl]-3-(1H-tetrazol-5-yl)benzene-1,2-disulfonamide] | 0.78 | 0.78 | 0.39 | 3.13 | 12.50 | 16.00 | 6.06 | 2.1 | 19.2 | 6.14 |
| NCC1CCN(c2ccc(S(=O)(=O)NC[C@H](O)CN)c(S(N)(=O)=O)c2-c2nnn[nH]2)CC1 [Example 34] | 0.20 | 0.39 | 0.39 | 0.39 | 0.39 | 2.00 | 4.07 | 0.18 | 3.49 | 2.05 |
